From ChEMBL document CHEMBL3991601, “The target landscape of clinical kinase drugs” (Science, 2017) come the findings set out here.

Calls of active or inactive are those of the source. Unless noted, the rule behind the calls is not given here.

Assay [1] concerns the target Putative nucleoside diphosphate kinase (Homo sapiens, UniProt O60361).
The target of another assay is Actin-related protein 3 (Homo sapiens, UniProt P61158).
Assay [2] addresses T1, Uncharacterized protein FLJ45252 (Homo sapiens, UniProt Q6ZSR9).
T1 sequence (Q6ZSR9 whole entry): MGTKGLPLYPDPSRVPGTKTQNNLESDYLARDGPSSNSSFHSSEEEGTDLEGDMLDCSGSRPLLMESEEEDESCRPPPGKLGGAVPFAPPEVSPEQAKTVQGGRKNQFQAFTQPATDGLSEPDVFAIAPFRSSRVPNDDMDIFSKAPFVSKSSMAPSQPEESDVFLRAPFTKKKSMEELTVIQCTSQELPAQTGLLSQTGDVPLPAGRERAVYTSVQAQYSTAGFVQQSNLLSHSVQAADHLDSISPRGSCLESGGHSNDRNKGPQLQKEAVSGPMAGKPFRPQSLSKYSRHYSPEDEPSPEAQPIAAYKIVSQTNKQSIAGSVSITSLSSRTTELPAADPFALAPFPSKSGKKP

Assay [3] concerns the target 5'-AMP-activated protein kinase subunit gamma-1 (Homo sapiens, UniProt P54619).
Assay [4] concerns the target T2, General transcription and DNA repair factor IIH helicase subunit XPD (Homo sapiens, UniProt P18074).
T2 sequence (P18074 whole entry): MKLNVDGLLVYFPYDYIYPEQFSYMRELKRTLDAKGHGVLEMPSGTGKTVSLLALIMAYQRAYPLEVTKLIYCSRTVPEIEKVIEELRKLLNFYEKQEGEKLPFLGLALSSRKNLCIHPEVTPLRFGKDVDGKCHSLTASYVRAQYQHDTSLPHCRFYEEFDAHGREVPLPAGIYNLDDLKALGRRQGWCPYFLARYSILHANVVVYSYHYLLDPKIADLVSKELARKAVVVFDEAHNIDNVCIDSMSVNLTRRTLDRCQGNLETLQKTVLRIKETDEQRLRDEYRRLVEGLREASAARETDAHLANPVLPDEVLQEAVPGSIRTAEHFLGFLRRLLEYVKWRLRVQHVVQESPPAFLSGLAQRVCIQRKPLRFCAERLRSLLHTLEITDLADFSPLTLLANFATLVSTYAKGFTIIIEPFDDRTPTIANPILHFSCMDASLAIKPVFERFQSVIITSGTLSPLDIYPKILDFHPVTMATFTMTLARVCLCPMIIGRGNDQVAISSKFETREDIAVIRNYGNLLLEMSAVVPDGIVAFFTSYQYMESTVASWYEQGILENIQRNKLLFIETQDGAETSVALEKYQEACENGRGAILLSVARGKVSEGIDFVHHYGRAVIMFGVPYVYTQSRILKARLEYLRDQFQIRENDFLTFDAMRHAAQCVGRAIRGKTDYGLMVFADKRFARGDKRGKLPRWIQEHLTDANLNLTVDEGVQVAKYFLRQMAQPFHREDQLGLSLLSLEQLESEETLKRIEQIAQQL

Assay [5] addresses 5'-AMP-activated protein kinase subunit gamma-2 (Homo sapiens, UniProt Q9UGJ0).

Chain of 5'-AMP-activated protein kinase subunit gamma-1 (P54619 whole entry): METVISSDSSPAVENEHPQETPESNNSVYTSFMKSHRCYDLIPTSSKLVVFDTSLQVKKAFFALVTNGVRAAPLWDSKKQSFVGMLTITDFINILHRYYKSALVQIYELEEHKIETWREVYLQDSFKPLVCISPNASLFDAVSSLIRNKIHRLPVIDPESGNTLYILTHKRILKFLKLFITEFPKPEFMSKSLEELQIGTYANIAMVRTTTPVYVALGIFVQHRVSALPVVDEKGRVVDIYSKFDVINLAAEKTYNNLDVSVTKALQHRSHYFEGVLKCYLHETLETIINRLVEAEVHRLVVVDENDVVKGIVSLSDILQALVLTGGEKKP
Chain of Putative nucleoside diphosphate kinase (O60361 whole entry): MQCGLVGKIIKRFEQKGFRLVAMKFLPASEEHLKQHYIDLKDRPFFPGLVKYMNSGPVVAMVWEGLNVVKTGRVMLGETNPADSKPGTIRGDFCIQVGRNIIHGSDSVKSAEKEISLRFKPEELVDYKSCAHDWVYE
Chain of 5'-AMP-activated protein kinase subunit gamma-2 (Q9UGJ0 whole entry): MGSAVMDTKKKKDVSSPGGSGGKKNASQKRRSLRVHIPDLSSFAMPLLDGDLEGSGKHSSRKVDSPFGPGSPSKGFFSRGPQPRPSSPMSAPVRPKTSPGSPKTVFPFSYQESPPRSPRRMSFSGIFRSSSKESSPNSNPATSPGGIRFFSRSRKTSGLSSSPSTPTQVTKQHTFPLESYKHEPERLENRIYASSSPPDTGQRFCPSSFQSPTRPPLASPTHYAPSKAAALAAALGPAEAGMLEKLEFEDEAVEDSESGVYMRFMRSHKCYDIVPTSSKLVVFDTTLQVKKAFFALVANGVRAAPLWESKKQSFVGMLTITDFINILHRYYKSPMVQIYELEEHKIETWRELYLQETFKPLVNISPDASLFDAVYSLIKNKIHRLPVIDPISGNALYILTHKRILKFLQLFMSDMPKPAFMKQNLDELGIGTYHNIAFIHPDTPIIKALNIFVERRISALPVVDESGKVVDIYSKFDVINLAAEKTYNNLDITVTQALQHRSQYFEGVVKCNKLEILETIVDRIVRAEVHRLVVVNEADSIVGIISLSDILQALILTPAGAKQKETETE

The Kd is the constant that tells how readily two partners part at equilibrium. `COc1cc(Nc2ncc3c(n2)-c2ccc(Cl)cc2C(c2c(F)cccc2OC)=NC3)ccc1C(=O)O` [ALISERTIB]: the Kd in assay [1] was > 30 µM (inactive).

Consider `NC(=O)Nc1cc(-c2cccc(F)c2)sc1C(=O)N[C@H]1CCCNC1` [AZD-7762], for which the Kd on Actin-related protein 3 was > 30 µM (inactive).

`COc1c(OCCCN2CCOCC2)ccc2c1N=C(NC(=O)c1cnc(N)nc1)N1CCN=C21` [COPANLISIB]: the Kd in assay [2], in assay [3], in assay [4] and in assay [5] was > 30 µM (inactive) each time.

As for `O=C(Nc1nc2cccc(-c3ccc(CN4CCS(=O)(=O)CC4)cc3)n2n1)C1CC1` [FILGOTINIB], the Kd in assay [2] is 4.38 µM (active); in assay [3] it was > 30 µM (inactive); in assay [4], > 30 µM (inactive); in assay [5], > 30 µM (inactive).

Take `COc1ncc(-c2ccc3nccc(-c4ccnnc4)c3c2)cc1NS(=O)(=O)c1ccc(F)cc1F` [OMIPALISIB]: the Kd in assay [1] is > 30 µM (inactive).

Consider `Cc1nc(Nc2n[nH]c3c2CN(C(=O)N[C@H](CN(C)C)c2ccccc2)C3(C)C)c2sccc2n1` [PF-03758309], for which the Kd at Actin-related protein 3 is > 30 µM (inactive).
